Assay results: patent US20230016007A1, “SOLUTIONS AND METHODS FOR FORMING AN EXOGENOUS FLEXIBLE FILM, WHICH INCLUDES A SUPPLEMENTAL COMPONENT, ON A PLANT AND PLANTS INCLUDING THE EXOGENOUS FLEXIBLE FILM” (Cultiva, LLC, priority 2017, published 2023)

Test system: grey mold (Botrytis cinerea)
Test: grey mold on Frontelis strawberries 7 days post-harvest (FIG. 11)
Procedure: The four groups were evaluated for infestation with grey mold 7 days post-harvest.

Q: For `CC1(C(=O)Nc2ccc(O)c(Cl)c2Cl)CCCCC1` [Fenhexamid], which “infestation with grey mold” value is on record?
A: Its value is “exhibited at least some infestation”.
